In patent publication US4515708A, “Corrosion inhibitors” (Exxon Research & Engineering Co., priority 1982, dated 1985):
Structures can show the parent of a compound that is named as a salt. Where two headings read alike, the source gives them in different places.

Legend:
[1] = Solubility Test (35 wt% solution in isopropylalcohol shaken with water, brine or heptane); type: physicochemical; details: for SOLUBILITY IN: Brine: 0.3 ml of 35 wt% IPA solution in 10 ml 5 wt% NaCl solution
Procedure: The active material under test was made up into a 35 wt% solution in isopropylalcohol (IPA). 0.3 ml of this solution was shaken with 10 ml of each of the liquids in which solubility is to be tested: water, 5 wt% NaCl solution (brine) and heptane. The mixture was observed after 30 minutes and 24 hours.

[2] = Emulsion Test (3 wt% brine / heptane); type: physicochemical; parameters: Emulsion thickness after 30 mins: unit not given here; details: for Time to break emulsion: 1 ml of 35 wt% IPA solution, 50 ml 3 wt% brine, 50 ml heptane; for Appearance after 30 mins, hydrocarbon: hydrocarbon layer; for Appearance after 30 mins, hydrocarbon / Appearance after 30 mins, water / Emulsion thickness after 30 mins: 50 ml 3 wt% brine/50 ml heptane; for Appearance after 30 mins, water: water layer
Procedure: 1 ml of the solutions used for Test A was shaken with 50 ml of 3 wt% brine and 50 ml of heptane for 1 minute in a 150 ml bottle. The emulsion was observed, and the time noted for the emulsion to break and form a clean interface with clear liquid layers. If at 30 minutes this had not occurred, the appearance was recorded together with the thickness of any persisting emulsion.

[3] = Corrosion Test 1 (dynamic wheel test; 3 wt% brine/Mentor 28; CO2 + H2S); details: for % Protection: 24 h, 70° C.
Procedure: (§1) For each compound three mild steel coupons (approximately 100 mm×12 mm×1.5 mm) were tested at each concentration. Each was contacted in a 250 ml bottle with 200 ml of a test fluid either saturated with a carbon dioxide at 20° C. or containing 100 ppm hydrogen sulphide or having both CO2 and H2 S present in those amounts. The test fluid was treated with a 30% aqueous solution of the compound under test at 2, 10, 50 and 250 ppm except where indicated to the contrary. The coupon was subjected to a dynamic wheel test in which the bottle was mounted radially on the periphery of 650 mm diameter wheel which was rotated at about 40 rpm for 24 hours at 70° C. The weight loss was obtained, and also measured in a control experiment where no inhibitor was present. From this the % protection was calculated as % reduction in weight loss.
Test fluid: 100 ml 3 wt% brine/100 ml Mentor 28 (Mentor®28 is a depolarised kerosene available from Exxon Chemical Company)
(§2) Corrosives: Saturated CO2 +100 ppm H2 S

[4] = Corrosion Test 2 (dynamic wheel test; 3 wt% brine; CO2 + H2S); details: 24 h, 70° C.
Procedure: as §1
Test Fluid: 200 ml 3 wt% brine
as §2

[5] = Corrosion Test 3 (dynamic wheel test; 3 wt% brine + Mentor 28; CO2 only); details: 24 h, 70° C.
Procedure: as §1
(§3) Test fluid: 100 ml 3 wt% brine+100 ml Mentor 28
Corrosives: Saturated CO2 only

[6] = Corrosion Test 4 (dynamic wheel test; 3 wt% brine + Mentor 28; H2S); details: 24 h, 70° C.
Procedure: as §1, §3
Corrosives: 100 ppm H2 S (prior nitrogen purge)

[7] = 0.3 ml of 35 wt% IPA solution in 10 ml heptane, 30 minutes and 24 hours
[8] = 0.3 ml of 35 wt% IPA solution in 10 ml water, observed after 30 minutes and 24 hours
[9] = 2 ppm, * active material added as undiluted compound
[10] = 10 ppm, * active material added as undiluted compound
[11] = 50 ppm, * active material added as undiluted compound
[12] = 250 ppm, * active material added as undiluted compound

SMILES	SOLUBILITY IN: Heptane [1, 7]	SOLUBILITY IN: Water [1, 8]	Time to break emulsion [2] [min]	Appearance after 30 mins, hydrocarbon [2]	Appearance after 30 mins, water [2]	% Protection ([4]; 2 ppm) [%]	% Protection ([4]; 10 ppm) [%]	% Protection ([4]; 50 ppm) [%]	% Protection ([4]; 250 ppm) [%]	% Protection ([3]; 2 ppm, 30% solution) [%]	% Protection ([3]; 10 ppm, 30% solution) [%]	% Protection ([3]; 50 ppm, 30% solution) [%]	% Protection ([3]; 250 ppm, 30% solution) [%]	other results
NCCCNCCc1ccccn1 [Example 14]	S	S	> 30	clear	hazy	26	64	74	90	–	–	–	–	SOLUBILITY IN: Brine ([1]; 30 minutes and 24 hours): S; % Protection [3, 9]: 47%; % Protection [3, 10]: 70%; % Protection [3, 11]: 70%; % Protection [3, 12]: 92%
NCCNCCNCCc1ccncc1 [Example 34]	–	S	1	clear	clear	18	26	48	69	22	50	66	80	SOLUBILITY IN: Brine ([1]; 30 minutes and 24 hours): S; % Protection ([5]; 2 ppm): 6%; % Protection ([5]; 10 ppm): 11%; % Protection ([5]; 50 ppm): 13%; % Protection ([5]; 250 ppm): 18%; % Protection ([6]; 2 ppm): 20%; % Protection ([6]; 10 ppm): 45%; % Protection ([6]; 50 ppm): 62%; % Protection ([6]; 250 ppm): 67%
CCCCCCCCCCNCCc1ccccn1 [Example 3]	S	S	> 30	hazy	hazy	7	37	91	97	13	63	82	99	% Protection ([6]; 2 ppm): 0%; % Protection ([6]; 10 ppm): 42%; % Protection ([6]; 50 ppm): 65%; % Protection ([6]; 250 ppm): 76%
CCCCCCCCCCNCCc1ccncc1 [Example 24]	S	S	> 30	hazy	hazy	–	–	–	–	58	80	88	95	–
CCc1ccncc1 [4-ethylpyridine.HCL, reference compound]	–	–	–	–	–	–	–	–	–	2	5	13	16	–
CCCCCCCCCCCCCCNCCc1ccncc1 [Example 26]	S	S	> 30	clear	hazy	–	–	–	–	–	–	–	–	Emulsion thickness after 30 mins [2]: 1.0
NCCCNCCc1ccncc1 [Example 33]	–	S	1	clear	clear	–	–	–	–	–	–	–	–	SOLUBILITY IN: Brine ([1]; 30 minutes and 24 hours): S
CCCCCCCCCCCCCCNCCc1ccccn1 [Example 5]	S	S	> 30	hazy	hazy	3	48	93	94	0	43	46	90	Emulsion thickness after 30 mins [2]: 0.5
CCCCCCCCNCCc1ccccn1 [Example 2]	–	–	5	clear	clear	37	34	84	94	–	–	–	–	SOLUBILITY IN: Heptane [1]: S; % Protection [3, 9]: 50%; % Protection [3, 10]: 82%; % Protection [3, 11]: 85%; % Protection [3, 12]: 89%
CCc1ccccn1 [2-ethylpyridine.HCL, reference compound]	–	–	–	–	–	–	–	–	–	10	10	24	18	–
NCCc1ccccn1 [2-aminoethyl pyridine, reference compound]	–	–	–	–	–	–	–	–	–	0	45	55	86	–
c1ccc(CNCCc2ccncc2)cc1 [Example 29]	–	–	1	clear	clear	–	–	–	–	25	56	60	67	–
CCCCCCCCCCCCNCCc1ccccn1 [21 acetate salt]	–	–	–	–	–	–	–	–	–	21	74	94	96	–
CCCCCCCCCCCCCCCCNCCc1ccncc1 [Example 27]	S	S	> 30	clear	hazy	40	47	84	94	39	69	84	96	Emulsion thickness after 30 mins [2]: 3.0
NCCNCCc1ccncc1 [Example 32]	–	–	> 30	clear	hazy	–	–	–	–	–	–	–	–	–
CCCCCCCCCCCCCCCCNCCc1ccccn1 [Example 6]	S	S	> 30	hazy	hazy	20	41	93	97	7	72	89	98	Emulsion thickness after 30 mins [2]: 1.0; % Protection ([6]; 2 ppm): 0%; % Protection ([6]; 10 ppm): 21%; % Protection ([6]; 50 ppm): 58%; % Protection ([6]; 250 ppm): 70%
CCc1ccccn1 [2-ethylpyridine, reference compound]	–	–	–	–	–	–	–	–	–	3	7	16	23	–
NCCNCCNCCNCCc1ccccn1 [Example 16]	S/D	S	10	clear	clear	37	59	81	89	32	72	81	89	SOLUBILITY IN: Brine ([1]; 30 minutes and 24 hours): S; % Protection ([6]; 2 ppm): 10%; % Protection ([6]; 10 ppm): 48%; % Protection ([6]; 50 ppm): 56%; % Protection ([6]; 250 ppm): 61%
CCCCCCCCCCCCNCCc1ccccn1 [Example 21, N-dodecyl-β-(2-pyridyl)-ethylamine]	–	–	–	–	–	–	–	–	–	17	51	86	93	corrosion protection compared with Example 4 ([3]; after addition of acetic acid): substantially identical protection to that seen in Example 4; corrosion protection compared with Example 4 ([3]; unsalified product): inferior corrosion protection to Example 4
CCCCCCCCNCCc1ccncc1 [Example 23]	–	–	10	clear	clear	–	–	–	–	38	49	83	92	SOLUBILITY IN: Heptane [1]: S; SOLUBILITY IN: Water [1]: S
